Patent publication US10501435B2, “Substituted quinazoline compounds and uses thereof for modulating glucocerebrosidase activity” (Northwestern University, priority 2015, dated 2019)
Entries after “also recorded” stand apart in the source; their conditions may differ.

Experiments:
wild-type GCase [1] = target: T1, wild-type GCase (Homo sapiens (Human), UniProt P04062); assay: GCase enzyme activity assay (4MU-β-Glc substrate, no taurocholate); assay type: biochemical; details: for change of inhibitory activity at pH 5.0 and pH 7.0 compared to pH 5.9: both pH conditions
Protocol: In previous studies, high concentrations of taurocholate (4-10 mM) were used to improve the signal in GCase enzyme activity assays^16,27,28. […] Here we describe our modifications of the substituents on the quinazoline ring.
4-Methylumbelliferyl β-D-glucopyranoside (4MU-β-Glc), 4-methylumbelliferyl α-D-glucopyranoside, 4-methylumbelliferyl α-D-galactopyranoside, and buffer components were purchased from Sigma-Aldrich (St. Louis, Mo.). The recombinant wild-type GCase enzyme velaglucerase alfa (Vpriv®, Shire Human Genetic Therapies, Inc.), acid α-glucosidase enzyme alglucosidase alfa (Lumizyme®, Genzyme Corporation), α-galactosidase A enzyme agalsidase beta (Fabrazyme®, Genzyme Corporation) were used in activity assays. […] A solution of 1 M sodium hydroxide and 1 M glycine (pH 10) was used as the stop solution for all three enzyme activity assays.
GCase Enzyme Activity Assay. The compounds in DMSO solution (0.5 μL/well) were transferred to a black 96-well plate (the final titration started from 100 μM, a 12 or 24-point 2-fold dilution series). […] After 5 min of incubation at room temperature, the enzyme reaction was initiated by the addition of blue substrate (4MU-β-Glc) (33 μL/well). The final concentration of the blue substrate was 1.5 mM. The blue substrate reaction was terminated by the addition of 33 μL/well stop solution (1 M NaOH and 1 M glycine mixture, pH 10) after 30 min of incubation at 37° C. […] The selected compounds were further assayed under pH 5.0 and pH 7.0 to evaluate their selectivity under various pH conditions.

wild-type GCase [2] = target: T1, wild-type GCase; assay: Fluorescent thermal shift assay; assay type: binding; details: pH 5.0, 0.5 to 200 μM
Text: Compounds shown to act as pharmacological chaperones for GCase (or other lysosomal enzymes) also stabilize the enzyme against thermal denaturation. A fluorescent thermal shift assay was developed to evaluate the binding affinity of ligands with protein^30. […] The maximum thermal shift of these compounds corresponded to their inhibitory activity at pH 5.0.
Fluorescence Thermal Shift Analysis^31. A robotic pipeline in the High Throughput Analysis Laboratory (HTAL) was used for protein ligand screening by fluorescence thermal shift (FTS) analysis. The pipeline used a Mosquito robot (TTP Labtech) for protein dispensing and an Echo 550 (Labcyte) to add compounds. Thermal scanning coupled with fluorescence detection was performed on a real-time PCR machine CFX384 (Bio-Rad Laboratories). The assay was run in 384-well PCR plates, using 10 μL citric acid/K2HPO4 buffer (50 mM citric acid, 150 mM K2HPO4, pH 5.0) per well. The assay concentration for protein was 1 μM and that for Sypro Orange (Invitrogen) was 5×. Protein was premixed with Sypro Orange and dispensed to a plate first, and compounds were added. Final concentrations of compounds ranged from 0.5 to 200 μM. Then the plate was sealed with an optical seal, shaken, and centrifuged. The thermal scan was from 10 to 95° C. with a temperature ramp rate of 1.5° C./min. The fluorescence was recorded every 10 sec. Data analysis and report generation were performed using the in-house software excelFTS.

α-galactosidase A (GLA) = α-galactosidase A (GLA) (Homo sapiens (Human), UniProt P06280); assay: Enzyme selectivity assay, α-galactosidase A; assay type: biochemical; details: compound treatments up to 100 μM, pH 4.8
Text: (§1) 4-Methylumbelliferyl β-D-glucopyranoside (4MU-β-Glc), 4-methylumbelliferyl α-D-glucopyranoside, 4-methylumbelliferyl α-D-galactopyranoside, and buffer components were purchased from Sigma-Aldrich (St. Louis, Mo.). The recombinant wild-type GCase enzyme velaglucerase alfa (Vpriv®, Shire Human Genetic Therapies, Inc.), acid α-glucosidase enzyme alglucosidase alfa (Lumizyme®, Genzyme Corporation), α-galactosidase A enzyme agalsidase beta (Fabrazyme®, Genzyme Corporation) were used in activity assays. The GCase activity assay buffer was composed of 50 mM citric acid, 176 mM K2HPO4, and 0.01% Tween-20 at pH5.0, pH 5.9 and pH7.0. A solution of 1 M sodium hydroxide and 1 M glycine (pH 10) was used as the stop solution for all three enzyme activity assays.
(§2) Enzyme Selectivity Assays. The acid α-glucosidase and α-galactosidase A enzyme activity assay methods were similar to the GCase enzyme activity assay above with slight modifications. The buffer for the two enzyme assays consisted of 50 mM citric acid, 176 mM K2HPO4, and 0.01% Tween-20 at pH 4.8. The final enzyme concentrations for acid α-glucosidase and α-galactosidase A were 8 and 1 nM, respectively. The substrate concentrations for these related enzymes were at 0.16 and 0.4 mM, respectively.

N370S mutant GCase [3] = target: T2, N370S mutant GCase (Homo sapiens (Human), UniProt P04062, N370S); assay: GCase protein levels by Western blot in patient N370S fibroblasts; assay type: cell-based; details: 3-day treatment, 0.2 μM and 2 μM
Protocol: (§3) N370S Cell Culture and Compound Treatment. The N370S fibroblast cell line was obtained from Coriell, GM00372, cultured in DMEM medium (Life Tech) including 1% v/v L-glutamine 200 mM (Life Tech), 1% v/v pen strep (Life Tech), 10% FBS (Life Tech) at 37° C. and 5% CO2 and treated with different compounds at 0.2 μM and 2 μM. After a 3-day treatment, cells were washed with inhibitor free media 3 times and fed with inhibitor free media for 1 day, followed by 1% Triton X-100 lysis buffer to lyse cells. Protein concentrations were measured with a Bradford kit (Thermo), and the GCase activity was determined at pH 5.5.
Western Blot. Proteins were denatured in 20% SDS sample buffer at 100° C. for 10 min; 10% Bis-Tris gel (Life Tech) was used for gels; Trans-Blot Turbo PVDF kit (Bio-Rad) was used for membrane transfer, and Chemidoc MP system (Bio-Rad) was used to analyze the blots.

acid α-glucosidase (GAA) = acid α-glucosidase (GAA) (Homo sapiens (Human), UniProt P10253); assay: Enzyme selectivity assay, acid α-glucosidase; assay type: biochemical; details: compound treatments up to 100 μM, pH 4.8
Text: as §1, §2

GCase = GCase (Homo sapiens (Human), UniProt P04062); assay: Enzyme kinetic assay (Lineweaver-Burk, resorufin β-D-glucopyranoside); assay type: biochemical; details: substrate 30-150 μM, increasing inhibitor concentrations
Protocol: We further tested compounds 4 and 11g by measuring GCase activity at various substrate concentrations (30-150 μM) and in the absence or presence of increasing concentrations of GCase inhibitors.
Enzyme Kinetic Assay. The substrate resorufin β-D-glucopyranoside was diluted to five concentrations, ranging from 30 to 150 μM. Seven concentrations of inhibitors (between 0.5- and 5-fold of IC50 value) and a DMSO control were added to the enzyme solution. The final enzyme concentration was 10 nM to give a linear reaction over 10 min. Enzyme kinetics were measured by the addition of 66 μL of substrate to a 96-well assay plate, followed by 33 μL of enzyme solution (with or without inhibitor) using a dispense module on a Biotek Synergy H1 multi-mode plate reader. The increase in product fluorescence was measured at 1 min intervals for 10 min in the plate reader. The rate of product formation was calculated by converting the fluorescence units to nanomoles of product per minute using a standard curve of the free fluorophore, resorufin.

N370S mutant GCase [4] = target: T2, N370S mutant GCase; assay: GCase activity assay in patient N370S fibroblasts; assay type: cell-based; details: 3-day treatment, activity determined at pH 5.5
Protocol: as §3

T1 sequence (P04062 40-536): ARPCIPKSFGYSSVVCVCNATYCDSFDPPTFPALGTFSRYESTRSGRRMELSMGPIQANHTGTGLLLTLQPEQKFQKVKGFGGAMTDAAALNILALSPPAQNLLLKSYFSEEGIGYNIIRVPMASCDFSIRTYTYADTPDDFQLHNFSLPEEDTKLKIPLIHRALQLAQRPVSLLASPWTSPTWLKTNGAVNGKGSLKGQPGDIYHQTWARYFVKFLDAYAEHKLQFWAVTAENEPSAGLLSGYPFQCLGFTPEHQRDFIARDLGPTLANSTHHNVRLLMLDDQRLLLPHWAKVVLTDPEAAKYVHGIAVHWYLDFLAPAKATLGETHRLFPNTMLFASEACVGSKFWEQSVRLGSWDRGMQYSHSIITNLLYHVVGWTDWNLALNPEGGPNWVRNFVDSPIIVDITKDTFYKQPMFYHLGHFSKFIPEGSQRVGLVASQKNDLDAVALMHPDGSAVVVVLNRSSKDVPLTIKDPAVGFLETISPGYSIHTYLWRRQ
T2 sequence (P04062 40-536 N409S): as the sequence (P04062 40-536) above, with N370S counted along it
Sequence of α-galactosidase A (GLA) (P06280 32-429): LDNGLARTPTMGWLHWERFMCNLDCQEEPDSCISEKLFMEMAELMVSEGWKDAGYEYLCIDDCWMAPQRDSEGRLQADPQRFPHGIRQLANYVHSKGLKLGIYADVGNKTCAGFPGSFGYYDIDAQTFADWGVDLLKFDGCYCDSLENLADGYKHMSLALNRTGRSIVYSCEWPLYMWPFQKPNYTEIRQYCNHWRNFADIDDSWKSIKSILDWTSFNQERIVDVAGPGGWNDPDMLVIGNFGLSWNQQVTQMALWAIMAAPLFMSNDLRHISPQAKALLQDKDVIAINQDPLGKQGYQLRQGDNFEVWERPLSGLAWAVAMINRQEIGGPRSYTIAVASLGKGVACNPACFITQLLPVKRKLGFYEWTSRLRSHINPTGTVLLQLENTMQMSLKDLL
Sequence of GCase (P04062 40-536): as the sequence (P04062 40-536) above

SMILES | decrease of inhibitory activity at pH 5.0 compared to pH 5.9 (wild-type GCase [1]; pH 5.0 vs pH 5.9) | stabilization of wild-type GCase / change of GCase melting point (wild-type GCase [2]) | change of inhibitory activity at pH 5.0 and pH 7.0 compared to pH 5.9 (wild-type GCase [1]) | α-galactosidase A (GLA) activity (α-galactosidase A (GLA)) | concentration of GCase (protein level, Western blot) (N370S mutant GCase [3]) | acid α-glucosidase (GAA) activity (acid α-glucosidase (GAA)) | type of inhibition (Km, Vmax) (GCase) | GCase activity in patient cells (N370S mutant GCase [4]) | inhibitory activity against GCase (in words) (wild-type GCase [1])
c1cncc(-c2nc(N[C@@H]3CCc4ccccc4C3)c3ccccc3n2)c1 [Compound 9b] | 3 fold | stabilize wild-type GCase in a dose-dependent manner; also recorded: increased the GCase melting point in a dose-dependent manner | – | – | – | – | – | – | –
c1csc(-c2nc(NC3Cc4ccccc4C3)c3ccccc3n2)c1 [Compound 11f, N-(2,3-dihydro-1H-inden-2-yl)-2-(thiophen-2-yl)quinazolin-4-amine] | – | stabilize wild-type GCase in a dose-dependent manner; also recorded: increased the GCase melting point in a dose-dependent manner | only dropped slightly | not significantly changed | significantly increased | not significantly changed | – | – | –
c1ccc(-c2nc(NC3Cc4ccccc4C3)c3ccccc3n2)cc1 [Compound 11d, N-(2,3-dihydro-1H-inden-2-yl)-2-phenylquinazolin-4-amine] | – | stabilize wild-type GCase in a dose-dependent manner; also recorded: increased the GCase melting point in a dose-dependent manner | – | not significantly changed | significantly increased | not significantly changed | – | – | –
c1ccc2c(c1)CC(Nc1nc(-c3ccsc3)nc3ccccc13)C2 [Compound 11g, N-(2,3-dihydro-1H-inden-2-yl)-2-(thiophen-3-yl)quinazolin-4-amine] | – | stabilize wild-type GCase in a dose-dependent manner; also recorded: increased the GCase melting point in a dose-dependent manner | only dropped slightly | not significantly changed | significantly increased | not significantly changed | linear mixed inhibition | increased GCase activity | –
c1cncc(-c2nc(NC3CCc4ccccc4C3)c3ccccc3n2)c1 (single isomer, unassigned) [Compound 9a] | – | stabilize wild-type GCase in a dose-dependent manner; also recorded: increased the GCase melting point in a dose-dependent manner | – | not significantly changed | – | not significantly changed | – | – | –
OC[C@H]1CNC[C@@H](O)[C@@H]1O [IFG, Isofagomine, reference compound] | – | stabilize wild-type GCase in a dose-dependent manner | – | – | did not have an effect | – | – | had no effect | –
c1ccc(Nc2nc(-c3cccnc3)nc3ccccc23)cc1 [Compound 8a] | – | did not change the melting points significantly | – | – | – | – | – | – | lost activity
